Data as given in patent US11400081B2, “Compounds” (The University of Sheffield, priority 2017, dated 2022).

Molecular target: T1, AM2 receptor (CALCRL+RAMP3) (Homo sapiens, UniProt O60896+Q16602)
T1 construct: host or cells: 1321N1
Experiment: AM2 receptor inhibition, LANCE TR-FRET cAMP agonist-antagonist competition assay
Assay type: cell-based
Conditions: inhibition of AM induced cAMP activation; 1321N1 cells transfected with CALCRL+RAMP3; read-out: AM2 pIC50 (converted)
Protocol: Compounds were assessed for their ability to inhibit ligand-induced elevations of cAMP, using the Perkin Elmer LANCE cAMP assay using commercially-available cells expressing a specific receptor of interest using the following general procedure:
Compounds were prepared in dimethyl sulfoxide (DMSO—99.9% pure) (Sigma Aldrich, Cat #: D4540) added to powder stocks to produce a 20 mM solution (100% DMSO) that was sonicated at 37° C. for 10 minutes to fully dissolve the compounds. The 20 mM stocks were diluted further in DMSO to produce a 2 mM solution that was sonicated at 37° C. for 10 minutes. 2 mM stocks were dissolved in assay/stimulation buffer to produce a 400 μM solution that was sonicated at 37° C. for 10 minutes for all cAMP assays. All stocks were stored at −20° C. Then serial dilution (Dilution factor 10) was performed to achieve the desire experimental concentrations.
Competition assays were performed according to the manufactures instructions using LANCE® TR-FRET cAMP assay kit (Perkin Elmer, Cat #: AD0264). Serial dilutions (3 μl/well) of the molecules were plated in a 384-well OptiPlate (Perkin Elmer, Cat #: 6007299) in duplicates. Appropriate controls (100% stimulation: Forskolin and 0% stimulation: Vehicle control) (6 μl/well) were included in each plate for data normalization. Following the compound addition, 6 μl of G-protein coupled receptor overexpressing cells/Alexa Fluor antibody solution (1:100 dilution) was added in each well at a desired density of 2500 cells/well. The overexpressing cell lines were purchased from DiscoveRx, Birmingham, UK. After spinning the plate at 1000 rpm for 1 minute and vortexing briefly, the cells were pre-incubated with the compounds for 30 minutes at room temperature (covered). Then 3 μl of the equivalent peptide ligand (EC50 dose) was added to all the wells except vehicle and forskolin controls. The plate were then spun down at 1000 rpm for 1 minute and once finished they were vortexed briefly and covered. Cells were stimulated in the presence of the ligands for 15 minutes at room temperature. After stimulation 12 μl of detection mix (Europium-Chelate streptavidin/biotinylated cAMP tracer solution) was added to all wells and incubated for 60 minutes at room temperature. The plate was then read on the Enspire multimode Plate reader (Perkin Elmer), at; 320/340 nm excitation and 615/665 nm emission was recorded.
• 28 mL Hank's Balanced salt solution (+MgCl2, +CaCl2)—(Thermo Fisher Cat #:14170112) • 150 μl HEPES (1M)—(Thermo Fisher Cat #:15630080) • 400 μl Stabilizer (DTPA) Purified BSA (7.5%)—(Perkin Elmer, Cat #: CR84-100) • 60 μl IBMX (250 mM)—(Sigma Aldrich, Cat #: 15879) Specific cAMP/Agonist-Antagonist Competition Assays
The ability of a compound to inhibit the AM induced cAMP activation in AM2 receptor-expressing cells (1321N1 cells transfected with CALCRL+RAMP3, sourced from DiscoverX catalogue number 95-0169C6) was assessed using the protocol above.

T1 sequence (Q16602 23-461): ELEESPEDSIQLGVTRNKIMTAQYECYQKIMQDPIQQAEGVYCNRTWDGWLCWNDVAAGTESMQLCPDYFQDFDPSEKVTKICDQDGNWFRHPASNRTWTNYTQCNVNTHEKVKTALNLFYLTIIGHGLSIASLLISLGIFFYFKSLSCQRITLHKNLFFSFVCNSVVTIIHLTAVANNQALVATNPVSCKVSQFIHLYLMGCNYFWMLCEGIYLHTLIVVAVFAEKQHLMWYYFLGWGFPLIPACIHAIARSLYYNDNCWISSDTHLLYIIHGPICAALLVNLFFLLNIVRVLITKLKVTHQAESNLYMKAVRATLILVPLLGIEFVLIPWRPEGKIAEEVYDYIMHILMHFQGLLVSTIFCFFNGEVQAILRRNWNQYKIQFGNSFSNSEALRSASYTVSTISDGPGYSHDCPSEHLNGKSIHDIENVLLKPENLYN
T1 sequence (O60896 24-148): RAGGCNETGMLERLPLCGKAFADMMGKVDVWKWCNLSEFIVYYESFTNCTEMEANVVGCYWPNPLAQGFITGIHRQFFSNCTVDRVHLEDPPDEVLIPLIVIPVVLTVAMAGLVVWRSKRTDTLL

Row | IC50 | SMILES
1 | 64.6 nM | CNCc1ccccc1CN(CC(=O)Nc1ccc2c(c1)CC1(C2)C(=O)Nc2ncccc21)C(=O)N1CCC(OC)C1 (stereo not shown) [Example 67, 3-Methoxy-N-[[2-(methylaminomethyl)phenyl]methyl]-N-[2-oxo-2-[(2-oxospiro[1H-pyrrolo[2,3-b]pyridine-3,2′-indane]-5′-yl)amino]ethyl]pyrrolidine-1-carboxamide]
2 | 15.5 nM | Cc1cc2c(cc1NC(=O)CN(Cc1ccccc1CN)C(=O)C(C)(C)C)CC1(C2)C(=O)Nc2ncccc21 (stereo not shown) [Example 39, N-(2-(Aminomethyl)benzyl)-N-(2-((5-methyl-2′-oxo-1,1′,2,3-tetrahydrospiro[indene-2,3′-pyrrolo[2,3-b]pyridin]-6-yl)amino)-2-oxoethyl)pivalamide]
3 | 29.5 nM | CN(C)Cc1ccccc1CN(CC(=O)Nc1ccc2c(c1)CC1(C2)C(=O)Nc2ncccc21)C(=O)C(C)(C)C (stereo not shown) [Example 30, N-(2-((Dimethylamino)methyl)benzyl)-N-(2-oxo-2-((2′-oxo-1,1′,2′,3-tetrahydrospiro[indene-2,3′-pyrrolo[2,3-b]pyridin]-5-yl)amino)ethyl)pivalamide]
4 | 28.8 nM | CNCc1ccccc1CN(CC(=O)Nc1ccc2c(c1)C[C@@]1(C2)C(=O)Nc2ncccc21)C(=O)C(C)(C)F [Example 95, (R)-2-Fluoro-2-methyl-N-(2-((methylamino)methyl)benzyl)-N-(2-oxo-2-((2′-oxo-1,1′,2′,3-tetrahydrospiro[indene-2,3′-pyrrolo[2,3-b]pyridin]-5-yl)amino)ethyl)propanamide 2,2,2-trifluoroacetate]
5 | 60.3 nM | CNCc1ccccc1CN(CC(=O)Nc1ccc2c(c1)C[C@@]1(C2)C(=O)Nc2ncccc21)C(=O)C(C)(C)CC(F)(F)F [Example 97, 4,4,4-Trifluoro-2,2-dimethyl-N-[[2-(methylaminomethyl)phenyl]methyl]-N-[2-oxo-2-[[(3R)-2-oxospiro[1H-pyrrolo[2,3-b]pyridine-3,2′-indane]-5′-yl]amino]ethyl]butanamide 2,2,2-trifluoroacetate]
6 | 309 nM | CNCc1ccccc1CN(CC(=O)Nc1ccc2c(c1)C[C@@]1(C2)C(=O)Nc2ncccc21)C(=O)C12CC(NC(C)=O)(C1)C2 [Example 100, 3-Acetamido-N-[[2-(methylaminomethyl)phenyl]methyl]-N-[2-oxo-2-[[(3R)-2-oxospiro[1H-pyrrolo[2,3-b]pyridine-3,2′-indane]-5′-yl]amino]ethyl]bicyclo[1.1.1]pentane-1-carboxamide 2,2,2-trifluoroacetate]
7 | 15.5 nM | CC1(C(=O)N(CC(=O)Nc2ccc3c(c2)CC2(C3)C(=O)Nc3ncccc32)Cc2ccccc2CN2CCC2)CC1 (stereo not shown) [Example 47, N-(2-(Azetidin-1-ylmethyl)benzyl)-1-methyl-N-(2-oxo-2-((2′-oxo-1,1′,2′,3-tetrahydrospiro[indene-2,3′-pyrrolo[2,3-b]pyridin]-5-yl)amino)ethyl)-cyclopropanecarboxamide]
8 | 7.08 nM | CNCc1ccccc1CN(CC(=O)Nc1ccc2c(c1)CC1(C2)C(=O)Nc2ncccc21)C(=O)c1cscn1 (stereo not shown) [Example 60, N-(2-((Methylamino)methyl)benzyl)-N-(2-oxo-2-((2′-oxo-1,1′,2′,3-tetrahydrospiro[indene-2,3′-pyrrolo[2,3-b]pyridin]-5-yl)amino)ethyl)thiazole-4-carboxamide]
9 | 126 nM | CN(C)CCNCc1ccccc1CN(CC(=O)Nc1ccc2c(c1)CC1(C2)C(=O)Nc2ncccc21)C(=O)C(C)(C)C (stereo not shown) [Example 7, N-(2-(((2-(Dimethylamino)ethyl)amino)methyl)benzyl)-N-(2-oxo-2-((2′-oxo-1,1′,2′,3-tetrahydrospiro[indene-2,3′-pyrrolo[2,3-b]pyridine]-5-yl)amino)ethyl)pivalamide]
10 | 30.2 nM | CCNCc1ccccc1CN(CC(=O)Nc1ccc2c(c1)CC1(C2)C(=O)Nc2ncccc21)C(=O)C(C)(C)C (stereo not shown) [Example 27, N-(2-((Ethylamino)methyl)benzyl)-N-(2-oxo-2-((2′-oxo-1,1′,2′,3-tetrahydrospiro[indene-2,3′-pyrrolo[2,3-b]pyridin]-5-yl)amino)ethyl)pivalamide]
